Measured values reported in patent US12090176B2 (priority 2019, dated 2024).
Like-named read-outs stand apart in the source and are kept apart here.

System: hematopoietic system damage model in which the mouse has been exposed to cyclophosphamide
Format: in vivo, KM mice
Parameters: unit not given here

C#C[C@]1(O)[C@H](O)C[C@H]2[C@@H]3CCc4cc(OC5CCCC5)ccc4[C@H]3CC[C@@]21C [Nilestriol]
peripheral blood WBC (nilestriol 10 mg/kg group, normal (before modeling)): 13.8 ± 2.5 ×10^12 | peripheral blood WBC (nilestriol 10 mg/kg once 6 h after cyclophosphamide, 1 d after modeling): 3.6 ± 0.9 ×10^12 | peripheral blood WBC (nilestriol 10 mg/kg once 6 h after cyclophosphamide, 4 d after modeling): 3.5 ± 2.5 ×10^12 | peripheral blood WBC (nilestriol 10 mg/kg once 6 h after cyclophosphamide, 6 d after modeling): 8.0 ± 2.5 ×10^12 | peripheral blood WBC (nilestriol 10 mg/kg once 6 h after cyclophosphamide, 12 d after modeling): 12.0 ± 5.9 ×10^12
